The values that follow come from patent US5407946A, “Pyrrolidine compounds which are useful as thromboxane AZ-inhibitors” (Adir et Compagnie, priority 1992, dated 1995).

For experiment [1], the target named is T1, TXA2 receptors (Cavia porcellus, UniProt A0A286Y4I8).
T1 construct: the trachea is rapidly removed and then cut out into rings containing two cartilages; from tissue; host or cells: guinea pig trachea rings
T1 sequence (A0A286Y4I8 1-347): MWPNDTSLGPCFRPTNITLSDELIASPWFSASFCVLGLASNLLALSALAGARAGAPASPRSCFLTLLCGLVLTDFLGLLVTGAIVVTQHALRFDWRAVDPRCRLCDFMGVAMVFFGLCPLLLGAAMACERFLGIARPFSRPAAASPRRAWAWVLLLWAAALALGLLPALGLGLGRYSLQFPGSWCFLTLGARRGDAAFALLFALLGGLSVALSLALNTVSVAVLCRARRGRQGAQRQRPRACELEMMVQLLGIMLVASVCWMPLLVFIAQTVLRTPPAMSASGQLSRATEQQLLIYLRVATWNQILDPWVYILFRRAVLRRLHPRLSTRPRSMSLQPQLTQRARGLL
As to the kind of experiment: Determination of the pA2 values on guinea pig trachea (contractions caused by U46619). It is filed as cell-based. As to conditions: guinea pig tracheal rings, 37° C., agonist U46619 10^-9 M to 10^-5 M, antagonist contact 20 minutes; read-out: pA2 (negative logarithm of the concentration of antagonist in the presence of which twice the amount of agonist is required for the same effect) (converted). Here is the method: 400-500-gram albino male guinea pigs were sacrificed by striking the nape of the neck and by pulling the neck. The throat is cut and the trachea is rapidly removed and then cut out into rings containing two cartilages. These rings are mounted between two hooks in cuvettes thermostated at 37° C., containing physiological saline (composition in mM: 118 NaCl; 25 NaHCO3; 10 glucose; 4.7 KCl; 1.25 CaCl2; 1.19 MgSO4; 1.14 KH2 PO4).
The physiological saline is bubbled with a mixture of 95% O2 -5% CO2. The bottom hook constitutes the fixed point while the upper hook is connected to an isometric force sensor. The tissues are placed under a basal tension of 3.5 grams. The pharmacological substances studied are prepared immediately before use. The drugs are solubilized in water or in dimethyl sulfoxide.
After mounting, the preparations are allowed to stand for 90 minutes, rinsings being carried out every 30 minutes. After readjusting the basal tension, a contraction generated by a single dose of agonist (U46619; 10^-5 M) is generated in order to stabilize subsequent contractions. After washing and returning to the base line, a first effect/concentration curve is produced by the addition of cumulative doses of U46619 (10^-9 M to 10^-5 M; the interval between the doses is a semilog). This first experiment makes it possible to calculate the effective concentration 50% (EC50) "control".
This EC50 is routinely calculated in the following manner: the tension values are first converted to percentages relative to the maximum effect, these percentages are then plotted on a graph with the percentages on the y-axis and the log(concentration) values on the x-axis. A linear regression is then performed on the points between 10% and 90% (which corresponds to the linear portion of the sigmoid curve). The concentration corresponding to half maximum effect (50%) can be easily calculated by means of the parameters of the straight line.
After washing and returning to the base line, the organ is placed in contact with the antagonist ([…]) for 20 minutes. A second effect/concentration curve is then produced in the presence of the antagonist and the "treated" EC50 can then be calculated. All the elements required for calculating the pA2 (competitive antagonism) or the pD2 (noncompetitive antagonism) are thus available.
The pA2 (which represents the negative logarithm of the concentration of antagonist in the presence of which twice the amount of agonist is required in order to obtain the same effect) is determined by plotting on a graph the log((L/l)-1) values relative to the log(concentration of antagonist), with L=effect in the presence of antagonist and 1=control effect. In this test, the pA2 values for the compounds of Examples 14 and 18 are as follows: […]

For experiment [2], the target named is T2, TXA2 receptors (Oryctolagus cuniculus, UniProt Q6WQI8).
T2 construct: citrated platelet-rich plasma, U46619-induced aggregation
T2 sequence (Q6WQI8 1-233): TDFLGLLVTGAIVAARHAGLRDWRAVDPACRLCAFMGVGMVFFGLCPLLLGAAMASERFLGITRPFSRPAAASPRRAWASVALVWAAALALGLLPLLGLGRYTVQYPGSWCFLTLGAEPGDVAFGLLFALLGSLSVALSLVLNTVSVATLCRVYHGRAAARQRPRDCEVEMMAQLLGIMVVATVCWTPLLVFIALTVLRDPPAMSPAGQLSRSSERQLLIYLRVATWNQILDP
As to the kind of experiment: Platelet aggregation induced by U46619 in rabbit platelet-rich plasma (PRP). It is filed as cell-based. As to conditions: 37° C., antagonist added 3 min before U46619 (1.2 μM), read-out: IC50, concentration which induces 50% inhibition of the aggregation response induced by U46619. Here is the method:
The rabbits (2-3 kg) are anesthetized with sodium pentobarbital (30 mg/kg i.v.). After cannulation of the left carotid artery, the blood is collected over sodium citrate (0.109 M) (1 vol. of citrate per 9 vol. of blood).
The plasma which is high in platelets (PRP) is obtained by centrifugation (20° C.) at 250 g for 20 minutes and the plasma which is low in platelets (PPP) by centrifugation at 1000 g (10 min). The number of platelets (PL) in the PRP is adjusted to between 300-350,000 pl/mm^3 by dilution with autologous PPP. The PRP is stored at room temperature up to the time of the test and is used within 4 hours following the collection. Platelet aggregation is performed at 37° C. in glass tubes siliconized by means of an aggregometer. The PRP and PLs are stirred at 1000 rpm (revolution per minute). In order to study the activity of the thromboxane antagonists, the PRP is incubated for 1 min at 37° C., and the antagonist is then added for a period of 3 min before adding the agonist U46619 (1.2 μM). The final volume of the cuvette is then 250 μl. The extent of platelet aggregation is determined by measuring the maximum amplitude of the aggregation plots and is expressed as a percentage of light transmission (% T). The activity of the antagonists is expressed as IC50, that is to say the concentration of the substance which induces 50% inhibition of the aggregation response induced by U46619.

Experiment [3] has as its target T3, thromboxane receptors (Cavia porcellus, UniProt A0A286Y4I8).
T3 construct: U46619 causes a bronchoconstriction which results in an increase in tracheal pressure; from tissue; host or cells: whole anesthetized guinea pig (in vivo, airways)
T3 sequence (A0A286Y4I8 1-347): T1 sequence (A0A286Y4I8 1-347)
As to the kind of experiment: IC50 on the tracheal pressure in guinea pigs (bronchoconstriction induced by U46619 in vivo). The settings on record: guinea pig, iv, 5 min; anesthetized guinea pigs, antagonist injected 5 minutes before U46619 (2 μg/kg i.v.), jugular vein; read-out: IC50, antagonist dose which inhibits by 50% the increase in tracheal pressure caused by U46619. From the text: Male albino guinea pigs (350-400 g), subjected to an 18-hour water diet, are anesthetized with ethylcarbamate (1.25 g/kg i.p.). A catheter is introduced into the carotid artery in order to measure the blood pressure by means of a pressure cell. A second catheter is introduced introduced into the jugular vein and is used for injecting the pharmacological substances. The trachea is cannulated and the guinea pig is placed under assisted respiration by means of a respirator. The temperature of the animal is kept at 37° C. by means of a thermostated cover. A needle pricked into the tracheal cannula is connected to a pressure cell and allows the tracheal pressure to be recorded. The guinea pigs are pretreated with d-tubocurarine (1 mg/kg i.v.) and with indomethacin (10 mg/kg i.v.). Injected at a dose of 2 μg/kg i.v., U46619 causes a bronchoconstriction which results in an increase in tracheal pressure and induces an increase in blood pressure. The responses to U46619 are reversible and reproducible if the injections are performed every 10 minutes.
The antagonists of thromboxane receptors are injected 5 minutes before the injections of U46619. The antagonist dose which inhibits by 50% the increase in tracheal pressure caused by U46619 is determined (IC50).

As to `O=C(O)CC/C=C\C[C@@H]1CN(S(=O)(=O)c2ccc(Cl)cc2)C[C@H]1c1ccccc1O` (relative stereo) [Example 18, (4Z)-6-[(3α, 4β)-1-(4-Chlorophenylsulfonyl)-4-(2-hydroxyphenyl)pyrrolidin-3-yl]hex-4-enoic acid], the Kb in experiment [1] is 7.94 nM. In experiment [2], the IC50 came out at 5400 nM. The ED50 in experiment [3] turned out to be 0.03 mg/kg.
For `CCCCCCC(=O)N1C[C@@H](C/C=C\CCC(=O)O)[C@@H](c2ccccc2O)C1` (relative stereo) [Example 23, (4Z)-6-[(3α,4α)-1-Heptanoyl-4-(2-hydroxyphenyl)pyrrolidin-3-yl]hex-4-enoic acid], the Kb in experiment [1] is 20 nM. Also, in experiment [3], the ED50 is 0.43 mg/kg.
Take `O=C(O)CCC/C=C\[C@@H]1CN(Cc2ccccc2)C[C@@H]1c1ccccc1O` (relative stereo) [Example 13, (5Z) -6-[(3α,4α) -1-Benzyl-4-(2-hydroxyphenyl)pyrrolidin-3-yl]hex-5-enoic acid]: in experiment [3], the ED50 was 2.28 mg/kg.
As for `O=C(O)CC/C=C\C[C@@H]1CN(S(=O)(=O)c2cccc3cnccc23)C[C@H]1c1ccccc1O` (relative stereo) [Example 25, (4Z)-6-[(3α,4β)-1-[(Isoquinol-5-yl)sulfonyl]-4-(2-hydroxyphenyl)pyrrolidin-3-yl]hex-4-enoic acid], the IC50 in experiment [2] worked out at 5000 nM. Besides, in experiment [3], the ED50 was determined as 0.06 mg/kg.
As to `CC(C)C(=O)N1C[C@@H](C/C=C\CCC(=O)O)[C@H](c2ccccc2O)C1` (relative stereo) [Example 20, (4Z)-6-[(3α,4β)-1-Isobutyroyl-4-(2-hydroxyphenyl)pyrrolidin-3-yl]hex-4-enoic acid], the ED50 in experiment [3] worked out at 1.31 mg/kg.
For the molecule `O=C(O)CC/C=C\C[C@@H]1CN(S(=O)(=O)c2cccc3ccccc23)C[C@@H]1c1ccccc1O` (relative stereo) [Example 28], in experiment [1], the Kb is 1.58 nM. In addition, the IC50 in experiment [2] is 500 nM. Also, the ED50 in experiment [3] was 0.01 mg/kg.
For the molecule `O=C(O)CCC/C=C\C[C@@H]1CN(S(=O)(=O)c2cccc3cnccc23)C[C@@H]1c1ccccc1O` (relative stereo) [Example 30, (5Z-7-[(3α,4α)-1-[(Isoquinolyl-5-yl)sulfonyl]-4-(2-hydroxyphenyl)pyrrolidin-3-yl)]hept-5-enoic acid], the IC50 in experiment [2] came to 500 nM. Also, the ED50 in experiment [3] is 0.08 mg/kg.
As to `O=C(O)CCC/C=C\C[C@@H]1CN(Cc2ccccc2)C[C@@H]1c1ccccc1O` (relative stereo) [Example 14, (5Z)-7-[(3α,4α)-1-Benzyl-4-(2-hydroxyphenyl)pyrrolidin-3-yl]hept-5-enoic acid], the Kb in experiment [1] is 282 nM. Further, the ED50 in experiment [3] is 1.02 mg/kg.
Consider `O=C(O)CC/C=C\C[C@@H]1CN(S(=O)(=O)c2ccc3ccccc3c2)C[C@@H]1c1ccccc1O` (relative stereo) [Example 29], for which the ED50 in experiment [3] came to 0.11 mg/kg.
In the case of `O=C(O)CC/C=C\C[C@@H]1CN(S(=O)(=O)c2cccc3cccnc23)C[C@@H]1c1ccccc1O` (relative stereo) [Example 27, (4Z)-6-[(3α,4α)-1-[(Quinol-8-yl)sulfonyl]-4-(2-hydroxyphenyl)pyrrolidin-3-yl]hex-4-enoic acid], the ED50 in experiment [3] turned out to be 0.03 mg/kg.
Consider `O=C(O)CC/C=C\C[C@@H]1CN(S(=O)(=O)c2cccc3cnccc23)C[C@@H]1c1ccccc1O` (relative stereo) [Example 24, (4Z)-6-[(3α,4α)-1-[(Isoquinol-5-yl)sulfonyl]-4-(2-hydroxyphenyl)pyrrolidin-3-yl]hex-4-enoic acid], for which the Kb in experiment [1] is 0.316 nM. Besides, the IC50 in experiment [2] is 800 nM. Also, in experiment [3], the ED50 is 0.01 mg/kg.
Turning to `O=C(O)CC/C=C\C[C@@H]1CN(Cc2ccccc2)C[C@@H]1c1ccccc1O` (relative stereo) [Example 15, (4Z) -6[(3α,4α) -1-Benzyl-4-(2-hydroxyphenyl)pyrrolidin-3-yl]hex-4-enoic acid], the ED50 in experiment [3] is 0.177 mg/kg.
For the molecule `O=C(O)CC/C=C\C[C@H]1CN(Cc2cccnc2)C[C@H]1c1ccccc1O` (relative stereo) [Example 21, (4Z)-6-[(3α, 4α)-4-(2-hydroxyphenyl)-1-[(3-pyridyl)methyl]pyrrolidin-3-yl]hex-4-enoic acid], in experiment [1], the Kb was 1580 nM. In experiment [3], the ED50 was found to be 1.03 mg/kg.
For `O=C(O)CC/C=C\C[C@@H]1CN(C(=O)Nc2ccccc2)C[C@@H]1c1ccccc1O` (relative stereo) [Example 22, (4Z)-6-[(3α,4α)-1-Phenylaminocarbonyl-4-(2-hydroxyphenyl)pyrrolidin-3-yl]hex-4-enoic acid], the IC50 in experiment [2] stood at 4000 nM. Further, the ED50 in experiment [3] was 1.21 mg/kg.
Regarding `CC(C)C(=O)N1C[C@@H](C/C=C\CCC(=O)O)[C@@H](c2ccccc2O)C1` (relative stereo) [Example 19], the Kb in experiment [1] was 200 nM. The ED50 in experiment [3] is 0.1 mg/kg.
